Tests used:
[1] = system: MCA205 cells; experiment: Cell death induction for vaccination, FACS analysis of Annexin V+ DAPI+ cells; assay type: cell-based, mouse; details: MCA205, 1 μM mitoxantrone, 24 hours
Protocol: Anti cancer vaccination was assessed using a previously described setting (Casares et al., 2005; Obeid et al., 2007). CT26 cells were cultured with either PBS or 20 μM doxorubicin, and MCA205 with either PBS or 1 μM mitoxantrone for 24 h. All these treatments led to ˜50% of Annexin V^+ DAPI^+ cells, as assessed by FACS analysis at 24 hours. After careful washes, cells were resuspended in sterile PBS. CT26 cells were incubated in the presence or in the absence of antimycin A and deoxyglucose (2 μg/ml and 30 mM, respectively) for 20 min, or in the presence or in the absence of Oxi-ATP ([…]). After 3 washes, 3×10^6 dying CT26 cells (or 3×10^5 MCA205 cells) were injected subcutaneously into the left flank of mice. In some experiments, 100 μg of IL-1Ra (Anakinra) was injected along with the dying cells. Seven days later, mice were rechallenged into the right flank with 5×10^5 live CT26 cells (or, alternatively, 3.10^4 live MCA205 cells). Tumor growth was then monitored weekly.

[2] = system: EG7 cells; experiment: ATP assays (extracellular and intracellular ATP, luciferin-luciferase) on oxaliplatin-treated tumor cells; assay type: cell-based, mouse
Protocol: FIG. 1: ATP release by dying tumor cells dictates the immunogenicity of cell death. FIG. 1a. Accumulation of ATP in the extracellular space following exposure of tumor cells to chemotherapy. EG7 were treated with oxaliplatin, and ATP release into the supernatant was monitored. FIG. 1b. […] EG7 were treated with oxaliplatin for 24 hours and subsequently with antimycin A and deoxyglucose (A/D) for 20 min. Data (means±SEM of triplicates) of one representative experiment out of three are depicted. FIG. 1c. Failure of dying tumor cells depleted from ATP to elicit an OVA specific immune response. Live or oxaliplatin-treated EG7 cells were injected into the footpad of C57B1/6 mice. Five days later, popliteal lymph node cells were recovered and restimulated with the OVA holoprotein for 72 hours before quantification of IFNγ secretion. The levels of IFNγ secretion between mice immunized with ATP-depleted or not depleted EG7 were compared in three independent experiments. FIG. 1d. Inhibition of purinergic receptors with oxidized ATP (oxiATP) abolishes T cell priming by oxaliplatin-treated EG7 cells. […] Five days later, the local immune response was measured as in (a). […]
Plates were read in a Fluostar luminometer (BMG Labtech).

[3] = system: EL4 thymoma tumors; experiment: Chemotherapy of EL4 tumors established in mice; assay type: in vivo
Protocol: FIG. 17. The anti-cancer activity of oxaliplatin depends on P2X7 and the NALP3 inflammasome. FIG. 17a,b,c. Therapeutic efficacy of oxaliplatin on established tumors depends on the integrity of the immune system on the P2X7/NALP3/casp-1 axis. EL4 thymoma tumors were established in syngenic mice bearing the indicated genotypes (a-c) or injected with anti-CD8 antibody (a). When the tumor reached 70-90mm^2 in size, mice were either left untreated or were treated with oxaliplatin. Each treatment group included 5-6 mice (X±SEM), and each experiment was repeated three times with similar results. * p<0.05. d. Caspase 1 is required for the immune response promoted by oxaliplatin chemotherapy. EG7 tumors established in the thigh were treated with one systemic injection of oxaliplatin. Inguinal lymph node cells were harvested 5 days later, and the gangliocytes were restimulated in vitro. IFNγ secretion was assessed by ELISA. Results (means of triplicates ±SEM, n=3) are representative of one typical experiment out of three. ^*P<0.01. FIG. 17d. The efficacy of anthracyclines against established colon cancer is dependent on IL-1β. CT26 tumors established for 10 days in WT mice were treated with one local injection of doxorubicin in the absence or presence of neutralizing anti-IL-1β Ab (n=10/group, *p<0.05). FIG. 17e. A single-nucleotide polymorphism (SNP) in P2X7 (rs3751143) affects the long-term efficacy of conventional anti-cancer therapy in breast cancer patients. Comparative Kaplan-Meier estimates of time to metastasis in two groups of patients bearing the normal (Glu496Glu) or loss-of-function (Glu496Ala) P2X7 alleles. The time to metastatic progression was analyzed in 225 women with non-metastatic breast cancer who received adjuvant chemotherapy with anthracylines.
Wild type or loss-of-function C57BL/6 mice were injected s.c. with 10^6 EL4 cells into the right flank. Alternatively, wild-type BALB/c mice were injected with 5.10^5 CT26 cells into the right flank. Mice were then randomly assigned to treatment groups of 4-6 mice each. The tumor surface was monitored using a caliper. When tumor size reached 70-90 mm^2 for EL4 (9-12 days post-injection) or 60-80 mm^2 for CT26 (8-10 days post-injection), mice received chemotherapy (Apetoh et al., 2007). Mice bearing EL4 tumors were injected with oxaliplatin (5 mg/kg i.p), while mice bearing CT26 tumors were injected with doxorubicin (50 μl, 4 mM i.t). In some experiments, CT26 tumor-bearing mice received two injections (on day 0 and day 2 after the commencement of chemotherapeutic treatment) of IL-1Ra (McIntyre et al., 1991) (100 μg), anti-IL-1 antibody (100 μg) or hamster serum as a control.

[4] = system: T cell priming for IFNγ production; experiment: Priming assay: dying EG7 cells injected into the footpad, IFNγ secretion of restimulated popliteal lymph node cells; assay type: in vivo, mice; details: cytokine co-injected with oxaliplatin-treated EG7: rIL-1β 250 ng, rIL-12 50 ng, rIL-6 250 ng per footpad
Protocol: 1.10^6 CT26, EG7, or B16F10 cells were either left untreated or treated with doxorubicin (20 μM) or oxaliplatin (5 μg/ml) for 24 h. Cells were then injected into the footpad of syngenic mice. In some experiments, 20 or 100 μg of IL-1Ra (Anakinra) or 250 ng of recombinant murine IL-1β (or 250 ng of IL-6 or 50 ng of IL-12) was injected along with dying tumor cells into the footpad of mice. Alternatively, DC were cocultured with EG7 cells for 2 hours, followed by the purification of CD11c^+ cells with anti-CD11c mAb coupled to magnetic beads (Miltenyi Biotec, Paris, France) and injection of these purified DC into the footpad. Five days later, gangliocytes from popliteal lymph nodes were harvested, seeded in 96 U-well plates (3.10^5 cells per well), and restimulated with 1 mg/ml OVA protein. Restimulation with MCA205 or CT26 cells was performed using 3×10^4 tumor cells killed by 5 min heating at 42° C. followed by 1 cycle of freezing/thawing in liquid nitrogen. For B16F10, restimulation was achieved using gp100 peptide as previously described (Overwijk et al., 1998). As a positive control of T cell priming, mice were injected with OVA protein (1 mg) (or gp100 for B16F10) and the association of CpG (10 μg) and Poly I:C (5 μg). For CT26 priming experiments, cell lysate plus LPS (250 ng) was used as a positive control. Supernatants were harvested 72 hours later, and IFNγ secretion was assessed by ELISA. Alternatively, cells were stimulated with PMA (10 ng/ml) and ionomycin (1 μg/ml) for 1 h, followed by the addition of brefeldin A (10 μg/ml for 6 h at 37° C.) (Apetoh et al., 2007), surface staining with Abs specific for CD3, CD4 or CD8, fixation and permeabilization (Cytofix/cytoperm kit) and then labeled with antibodies specific for IFNγ. Immunofluorescence was analyzed on a LSRII flow cytometer (BD Biosciences) with FACSDiva software.

[5] = system: OT-1 CD8+ T cells; experiment: In vitro stimulation of OT-1 cells by BM-DC loaded with oxaliplatin-treated EG7; assay type: cell-based, mouse; details: rIL-1β 100 ng/ml or IL-12 10 ng/ml added to cocultures
Protocol: FIG. 15. IL-1β-dependent CTL priming by dying tumor cells in vitro and in vivo. FIG. 15a. MyD88 is required at the level of the host but not that of the APC. DC from WT mice were first loaded with antigen (OVA holoprotein with C/P adjuvant, live or oxaliplatin-treated EG7 cells) and then injected into the footpad of into WT or MyD88^−/− recipients (n=6 mice/group). Five days later, the local immune response was measured as in FIG. 2d,e. Results of one typical experiment out of three are depicted. FIG. 15b. Casp-1 and IL-1β-dependent OT-I priming in vitro. The differentiation of IFNγ producing CD8^+ OT-1 cells was induced by incubating naïve OVA-specific TCR transgenic OT-1 lymphocytes with syngeneic BM-DC (derived from WT or Casp-1^−/− mice) that were loaded with oxaliplatin-treated EG7 for 2 days in vitro. […] Exogenous addition of rIL-1β (100 ng/ml) or IL-12 (10 ng/ml) to cocultures of Casp-1^−/− DC loaded with dying tumor cells and incubated with OT1 restored T cell priming. […] FIG. 15c. Specific and direct polarizing effects of IL-1β on T lymphocytes in vitro. Purified CD3^+ CD8^+ T cells derived from naïve WT mice were stimulated with anti-CD3 and anti-CD28 mAb for 5 days in the presence of the indicated cytokines (10 ng/ml for IL-12p70, 100 ng/ml for IL-1β, IL-6 and TNFα) -and IFNγ production was measured as in FIG. 3b. FIG. 15d. […]

## O=C1c2c(O)ccc(O)c2C(=O)c2c(NCCNCCO)ccc(NCCNCCO)c21 [mitoxantrone]
[1]
  Annexin V+ DAPI+ cells: ~50%

## O=C1[O][Pt]2([NH][C@@H]3CCCC[C@H]3[NH]2)[O]C1=O [oxaliplatin]
[2]; EG7 treated with oxaliplatin for 24 hours
  intracellular ATP: Decrease of intracellular ATP
[2]; EL4 thymomas and EG7 cells, oxaliplatin 5 μg/ml, 0-24 hours
  release of ATP into the supernatant: induced the release of ATP
[3]; Casp1−/− mice versus WT controls
  response of EL4 tumors to oxaliplatin: responded less efficiently
[3]; IfnγR1−/− mice
  therapeutic efficacy on established EL4 tumors: lost its therapeutic efficacy
[3]; Il-12Rβ2−/− mice (and WT)
  therapeutic efficacy on established EL4 tumors: remained efficient
[3]; Nalp3−/− mice versus WT controls
  response of EL4 tumors to oxaliplatin: responded less efficiently
[3]; P2X7−/− mice versus WT controls
  response of EL4 tumors to oxaliplatin: responded less efficiently
[3]; T and B cell-deficient rag-2−/− mice
  therapeutic efficacy on established EL4 tumors: lost its therapeutic efficacy
[3]; T cell-deficient nu/nu mice
  therapeutic efficacy on established EL4 tumors: lost its therapeutic efficacy
[3]; immunocompetent WT mice, oxaliplatin 5 mg/kg i.p.
  control of EL4 tumor growth: efficient in controlling EL4 tumor growth
[3]; mice depleted from CD8+ T cells
  therapeutic efficacy on established EL4 tumors: lost its therapeutic efficacy

B1: IL-12: recombinant mouse IL-12 from R&D Systems (protein, UniProt P43431 23-215; P43432 23-335, looked up)
Interleukin-12 subunit alpha: RVIPVSGPARCLSQSRNLLKTTDDMVKTAREKLKHYSCTAEDIDHEDITRDQTSTLKTCLPLELHKNESCLATRETSSTTRGSCLPPQKTSLMMTLCLGSIYEDLKMYQTEFQAINAALQNHNHQQIILDKGMLVAIDELMQSLNHNGETLRQKPPVGEADPYRVKMKLCILLHAFSTRVVTINRVMGYLSSA
Interleukin-12 subunit beta: MWELEKDVYVVEVDWTPDAPGETVNLTCDTPEEDDITWTSDQRHGVIGSGKTLTITVKEFLDAGQYTCHKGGETLSHSHLLLHKKENGIWSTEILKNFKNKTFLKCEAPNYSGRFTCSWLVQRNMDLKFNIKSSSSSPDSRAVTCGMASLSAEKVTLDQRDYEKYSVSCQEDVTCPTAEETLPIELALEARQQNKYENYSTSFFIRDIIKPDPPKNLQMKPLKNSQVEVSWEYPDSWSTPHSYFSLKFFVRIQRKKEKMKETEEGCNQKGAFLVEKTSTEVQCKGGNVCVQAQDRYYNSSCSKWACVPCRVRS
[4]
  T cell priming in Nalp3−/− or Casp1−/− mice: restored deficient T cell priming
[5]
  priming capacity of Casp-1−/− DC for OT-1 cells (IFNγ): restored the priming capacity
